The values that follow come from paper PMC5511861, “DS16570511 is a small-molecule inhibitor of the mitochondrial calcium uniporter” (Cell Death Discovery, 2017).

The subject of assay [1] is mitochondrial Ca2+ levels in rat perfused heart. Put plainly: Mitochondrial Ca2+ overload in rat isolated perfused heart. To be noted: 10 min pretreatment. Here is the method: We investigated the effect of DS16570511 on mitochondrial Ca^2+ levels in a rat isolated perfused heart. In the normal condition of the perfusion assay, the Ca^2+ concentration of the perfusion buffer is 2.5 mM.[23] To induce mitochondrial Ca^2+ overload, Ca^2+ concentration in the perfusion buffer was increased from 2.5 mM to 5 mM or 7.5 mM.
Figure 6 DS16570511 inhibits mitochondrial Ca^2+ overload in isolated heart. Effect of DS16570511 on mitochondrial Ca^2+ levels in rat perfused heart. For induction of Ca^2+ overload in mitochondria ex vivo, Ca^2+ concentration was increased from 2.5 mM to 5 mM or 7.5 mM. The heart was treated with DS16570511 for 10 min before the high Ca^2+ treatment. Data are mean with S.E.M. from more than three independent samples.
The hearts were rapidly excised from 9-week-old male Wistar rats and perfused at 37 °C with Krebs-Ringer perfusion buffer (127.2 mM NaCl, 4.7 mM KCl, 2.5 mM CaCl2, 1.2 mM KH2PO4, 1.2 mM MgSO4, 25 mM NaHCO3 and 5.5 mM glucose (pH 7.4)) equilibrated with 95% O2/5% CO2. A balloon was inserted through the left atrium into the left ventricle. Heart rate and contractility were continuously recorded with a data acquisition system (PowerLab, ADInstruments, Bella Vista, NSW, Australia).

Assay [2] relates to Ca2+ uptake of pig heart mitochondria. The assay can be described thus: Ca2+ uptake assay using isolated pig heart mitochondria (atomic absorbance spectrometer). It is filed as biochemical. To be noted: 100 μM CaCl2; read-out: IC50, inhibition of Ca2+ uptake of pig heart mitochondria. How it is done:
We then asked whether DS16570511 inhibits Ca^2+ uptake in isolated mitochondria from animal heart. An atomic absorbance spectrometer-based detection method was employed to analyze intramitochondrial Ca^2+ levels. We prepared freshly isolated mitochondria from pig heart, and the mitochondria were incubated with 100 μM CaCl2.
(a) Effect of RuR on Ca^2+ uptake of pig heart mitochondria. […] Data are mean with S.E.M. from three independent samples. (b) Inhibition rate of RuR or DS16570511 on Ca^2+ uptake of pig heart mitochondria. Inhibition 0 or 100% is defined as a value of Ca^2+-untreated mitochondria or Ca^2+-treated mitochondria, respectively. Data are mean with S.E.M. from three independent samples. (c) Inhibition rate of RuR or DS16570511 on Ca^2+ uptake of rat heart mitochondria. Data are mean with S.E.M./variation from three or two independent samples for DS16570511 or RuR, respectively.
Mitochondria were isolated by using the mitochondria isolation kit and then dissolved in the swelling buffer. The protein concentration of the mitochondrial solution was 5 mg/ml. Thirty minutes after application of CaCl2 (final concentration of 100 μM) to the solution, the mitochondria were collected by centrifugation (3000 g) at 4 °C. The pellets were resuspended in the swelling buffer containing 1 μM RuR. After collection of the mitochondria by centrifugation (3000 g), the pellets were dried and dissolved by 40 μl of sulfuric acid at 95 °C.

The target of assay [3] is T1, mitochondrial calcium uniporter (Homo sapiens, UniProt Q8NE86).
T1 sequence (Q8NE86 51-351): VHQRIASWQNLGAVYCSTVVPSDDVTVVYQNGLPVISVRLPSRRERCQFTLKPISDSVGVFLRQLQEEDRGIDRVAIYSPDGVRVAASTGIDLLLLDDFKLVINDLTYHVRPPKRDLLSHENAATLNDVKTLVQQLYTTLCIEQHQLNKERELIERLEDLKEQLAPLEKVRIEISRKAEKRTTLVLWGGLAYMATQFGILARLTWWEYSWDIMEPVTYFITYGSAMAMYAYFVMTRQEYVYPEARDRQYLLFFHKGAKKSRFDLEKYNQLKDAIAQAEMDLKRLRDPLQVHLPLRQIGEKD
T1 sequence (Q9H4I9 48-107 partner limits assumed): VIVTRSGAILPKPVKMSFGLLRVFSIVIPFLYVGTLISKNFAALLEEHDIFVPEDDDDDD
Put plainly: Aequorin assay: serum-induced mitochondrial Ca2+ influx in HEK293A cells expressing mitochondria-targeted aequorin. In kind it is cell-based. Details: endogenous in cells; host or cells: HEK293A cells stably expressing mitochondria-targeted aequorin. Conditions: 10% fetal bovine serum, 20 min pretreatment, read-out: IC50, inhibition of serum-induced mitochondrial Ca2+ influx. Here is the method:
(§1) In the first screening using the cell-based assay, application of 10% fetal bovine serum to the cells triggered a rapid increase of mitochondrial Ca^2+ level (Figure 1a). Pretreatment of the cells with DS16570511 inhibited the serum-induced mitochondrial Ca^2+ influx with an IC50 of 7 μM (Figures 1a and b). In order to eliminate broad channel inhibitors or chemicals affecting the aequorin-based detection system, a counter assay was carried out using HEK293A cells expressing aequorin in cytosol. In the assay, the concentration of DS16570511 used to decrease the serum-induced cytosolic Ca^2+ increase by 50% was ~50 μM.
Figure 1 DS16570511 inhibits mitochondrial Ca^2+ influx in HEK293A cells. (a) Representative raw data of serum-induced mitochondrial Ca^2+ influx in HEK293A cells. (b) Effect of DS16570511 on serum-induced mitochondrial Ca^2+ influx. The area under the curve of temporal aequorin activities is used for calculation of inhibitory activities. […]
For dynamic measurements of mitochondrial Ca^2+ levels in intact cells, HEK293A cells were stably transfected with pIRES-puro vector expressing mitochondria-targeted aequorin.[20] […] For induction of intracellular Ca^2+, the cells were treated with 10% fetal bovine serum, and luminescence levels were measured by using a Centro LB960 luminometer (Berthold Technologies, Oak Ridge, TN, USA).

Assay [4] has as its system serum-induced cytosolic Ca2+ increase in HEK293A cells. Put plainly: Counter assay: serum-induced cytosolic Ca2+ increase in HEK293A cells expressing aequorin in cytosol. In kind it is cell-based, human. Conditions: read-out: concentration used to decrease the serum-induced cytosolic Ca2+ increase by 50%. How it is done:
as §1
For dynamic measurements of mitochondrial Ca^2+ levels in intact cells, HEK293A cells were stably transfected with pIRES-puro vector expressing mitochondria-targeted aequorin.[20] One day after plating on a 15-cm dish (8×10^6 cells/dish), the cells were harvested and incubated with 2.5 μM coelenterazine h in aequorin assay buffer (200 mM Hanks Balanced Salt Solution, 25 mM HEPES (pH 7.0) and 0.1% bovine serum albumin) for 2 h at room temperature. The cells (8.1×10^4 cells/well) were then treated with DS16570511 for 20 min in a 96-well plate at room temperature. For induction of intracellular Ca^2+, the cells were treated with 10% fetal bovine serum, and luminescence levels were measured by using a Centro LB960 luminometer (Berthold Technologies, Oak Ridge, TN, USA).

Turning to `Cc1onc(-c2c(Cl)cccc2Cl)c1CNc1cccc(C(=O)c2cn(CCCC(=O)O)c3ccccc23)c1` [DS16570511], the “effect on mitochondrial Ca2+ level, normal buffer” value in assay [1] (2.5 mM Ca2+ buffer, 30 μM) is “no significant effect”. The “effect on mitochondrial Ca2+ increase induced by 5.0 mM Ca2+ buffer” value in assay [1] (5.0 mM Ca2+ buffer) is “blocked”. Also, the “effect on mitochondrial Ca2+ overload induced by 7.5 mM Ca2+ buffer” value in assay [1] (7.5 mM Ca2+ buffer) is “dose-dependently inhibited”. Further, the IC50 is 15 µM in assay [2], 7 µM in assay [3] and approximately 50 µM in assay [4].
